Key:
[1] = test system: Z12i promoter ffLuc reporter in HEK293 cells; assay: ffLuc reporter induction under Z12i promoter in transfected HEK293 cells; assay type: cell-based; settings: TF cis-plasmids plus Z12i-ffLuc reporter, rapamycin versus rapalog, all TF systems tested
Experimental: Cis plasmid constructs having the following elements, from 5′ to 3′ were constructed: promoter, nuclear localization signal (NLS), FRAPL (lipid kinase homolog having rapamycin binding domain), p65 of human NF-κB (transcriptional activation domain), IRES, zinc finger (DNA binding domain), 2 or 3 copies of FK506 binding protein as shown below, and a poly A.
These cis plasmids were tested for in HEK293 cells for the ability to induce expression of ffLuc reporter gene under the control of Z12i promoter, consisting of 12 ZFHD binding sites followed by minimal IL2 promoter. Briefly, HEK293 cells were transfected with cis-plasmids along with the reporter constructs. 24-72 hours post transfection, cells were treated with various concentrations of either rapamycin (sirolimus) or rapalog AP22594 as indicated in FIG. 5. Expression of ffLuc was assessed using dual luciferase detection kit from Promega according to manufacturer's instructions. […] Antibodies normally are secreted into supernatant buy the transfected cells. In this experiment, transfection was performed using lipofectamine according to the manufacturer's instructions, and induction was carried out the next day after transfection using indicated amounts of rapalog. At 72 hours post transfection, supernatants were harvested and expression of anti-SIV antibody was assessed using antigen specific ELISA or protein A ELISA. […]

[2] = IM AAV8 Z12i-immunoadhesin plus TF vectors in RAG KO mice, AP22594 induction, protein A ELISA; assay type: in vivo; settings: post AAV8 administration
Experimental: RAG KO mice were purchased from Jackson labs. Z12i-2014A and TF plasmids were packaged into AAV8 vectors using triple transfection method. Vectors were titered using qPCR. […] First induction with AP22594 was carried out on day 13 after AAV8 administration. AP22594 was administered IP at a dose of 1 mg/kg. On day 21 post AAV8 administration, orbital bleeds were collected and the level of circulating 2011A antibody was measured by protein A ELISA. The data is presented on FIG. 8.

[3] = test system: NHP eyes; assay: Subretinal AAV8 regulatable antibody expression in NHP eyes (ELISA); assay type: in vivo, Macaca mulatta (rhesus monkeys); settings: rapamycin IV
Experimental: For this experiment a 3 year old male Macaca mulatta (rhesus monkeys) was purchased from Covance Research Products, Inc.
For subretinal (SR) vector injections, a needle was inserted through a sclerotomy 2 mm posterior to the limbus at the 2 or 10 o'clock position. It was then advanced through the vitreous to penetrate the retina in the posterior pole. Under microscopic control, up to 100 μL of anterior chamber fluid was removed and 150 μL of viral vector solution diluted in phosphate buffered saline (PBS) was injected into the subretinal space, thereby raising a dome-shaped retinal detachment (bleb). The detachment covered a small fraction (approximately ⅛th) of the area of the retina in the macula. The NHP received AAV8 vectors injected subretinally into the left (OS) and right (OD) eyes. The two vectors that were injected were: AAV2/8.CMV.TF1Nc (alternate name for AAV2/8.CMV.TF) and AAV2/8.Z12i.AbH.FF2A.AbL.BGH. The vectors were mixed at 1:1 ratio at 10^11 GC and delivered SR in a total volume of 150 μL.
Macaques were induced at various times following the SR vector injection. Rapamycin (2 mg/kg) was delivered IV in a solution of 1.2% Tween 80, 27.1% Polyethylene Glycol, 71.7% Nuclease Free Water. At designated times post vector delivery, a tap was performed on the OD eye (baseline) and the NHP then injected IV with 2 mg/kg rapamycin. […]

[4] = test system: nasal airways; assay: Intranasal AAV9 regulatable ffLuc expression in mice after rapamycin induction (IVIS imaging); assay type: in vivo, C57BL/6 mice
Experimental: AAV2/9.Z12i.ffLuc and AAV2/9.CMV.Tf were used in this example. These vectors were prepared as described in S J Chen et al, Hu Gene Therapy, 24: 270-278 (August 2013). AAV2/9.Z12i.ffLuc contains:
C57BL/6 mice (6 to 8 weeks of age) were purchased from Charles River Laboratories (Wilmington, Mass.) and kept under pathogen-free conditions at the Animal Facility of the Translational Research Laboratories. Mice were anesthetized using an intraperitoneal (IP) injection of ketamine/xylazine. For vector administrations, mice were inoculated intranasally (IN) with […] in the right and left nostril for a total dose of 10^11 genome copies (GC) in 25 μL. All animal procedures were approved by the Institutional Animal Care and Use Committees of the University of Pennsylvania.
Topical (IN) application: mice were anaesthetized with ketamine/xylazine and 5 mins later 5 μL of rapamycin solution for a total dose of 10 mg/kg was delivered to the right and left nostril IN. Systemic (IP) application: mice were physically restrained and injected IP with 50 μL of a 1 mg/mL rapamycin solution.
Mice were anaesthetized with ketamine/xylazine and 5 mins later 10 μL of 15 mg/ml D-luciferin (Caliper, USA) was delivered to the right and left nostril IN. Five mins later mice were imaged using the IVIS® Xenogen imaging system [Perkin-Elmer]. Quantitation of signal was calculated using the Living Image® 3.0 Software.
The level of gene expression achieved in the nasal airways following rapamycin induction was examined. Briefly, C57B1/6 mice (n=5/group) were dosed with 10^11 GC of both AAV2/9.Z12i.ffLuc and AAV2/9.CMV.Tf in a volume of 25 μL (12.5 μL per nostril). As negative controls, groups of mice were dosed with a) AAV2/9.Z12i.ffLuc alone, b) AAV2/9.CMV.Tf alone and c) PBS mice. As a positive control for the maximal expression of ffLuc, mice (n=5) were injected with AAV2/9.CMV.ffluc. To maximize the safety of the inducible vector system we opted to restrict expression to the nasal epithelium by delivering rapamycin topically (directly to the nose) or systemically (IP).

[5] = stated as consistent with the time frame of decline; cited from earlier work
[6] = three separate IN rapamycin inductions over three months

Molecule: COC1CC2CCC(C)C(O)(O2)C(=O)C(=O)N2CCCCC2C(=O)OC(C(C)CC2CCC(O)C(OC)C2)CC(=O)C(C)C=C(C)C(O)C(OC)C(=O)C(C)CC(C)C=CC=CC=C1C (stereo not drawn) [AP22594, 28-epi-rapamycin]
- induction of transgene (ffLuc) expression [1]: comparable levels of induction of transgene expression
- day induced expression returned to barely detectable [2]: 49 days
- day induced expression started to decline [2]: 35 days
- day of peak induced expression ([2]; data not shown): 28 days

Molecule: CO[C@H]1C[C@@H]2CC[C@@H](C)[C@@](O)(O2)C(=O)C(=O)N2CCCC[C@H]2C(=O)O[C@H]([C@H](C)C[C@@H]2CC[C@@H](O)[C@H](OC)C2)CC(=O)[C@H](C)/C=C(\C)[C@@H](O)[C@@H](OC)C(=O)[C@H](C)C[C@H](C)/C=C/C=C/C=C/1C [rapamycin]
- time to wane to background undetectable levels [3]: ≤ 3 months
- peak of antibody expression post induction ([3]; several inductions over 4 years): 14 days
- time for ffLuc expression to reach background levels ([4]; IN or IP rapamycin induction): ≤ 7 days
- time until which ffLuc expression remained stable ([4]; IN or IP rapamycin induction): 48 h
- time to maximal ffLuc expression after induction ([4]; IN or IP rapamycin induction, AAV2/9.Z12i.ffLuc plus AAV2/9.CMV.Tf IN): ≤ 24 h
- signs of behavioral distress ([4]; rapamycin delivered to the nose or systemically): did not exhibit any signs of behavioral distress
- time at which expression began to decline [4, 6]: 72 h
- time to maximal induction [4, 6]: ≤ 24 h
- time to which induction was stable [4, 6]: 48 h

B1: 2011A antibody: immunoadhesin expressed from the Z12i construct in AAV8 (protein)
chain: EVQLLESGPGLVKPSETLSLTCAVSGLSISSDFSWAWIRQTPGKALEYVGYIRGNTGDTYYNPSLKSRLTISKDTSKNQIYLNLSSVTAGDAAVYYCARDRVCDDDYGYYYTEVCFGLDSWGQGIVVTVSSGGGGSGGGGSGGGGSAELVMTQSPLSLSVAPGQTASISCRSSQSLDYANGNTYLSWFHQRPGQPPRRLIYQISNRDSGVPDRFSGSGAGTEFTLRISRMESDDVGIYYCGQGTTFPRTFGQGTKVEIKTCGGGSKPPTCPPCTSPELLGGPSVFLFPPKPKDTLMISRTPEVTCVVVDVSQEDPDVKFNWYVNGAEVHHAQTKPRETQYNSTYRVVSVLTVTHQDWLNGKEYTCKVSNKALPAPIQKTISKDKGQPREPQVYTLPPSREELTKNQVSLTCLVKGFYPSDIVVEWESSGQPENTYKTTPPVLDSDGSYFLYSKLTVDKSRWQQGNVFSCSVMHEALHNHYTQKSLSLSPGK
- antibody half-life [5]: 1-2 weeks

From US20190002915A1, “COMPOSITIONS AND METHODS FOR REGULATABLE ANTIBODY EXPRESSION” (The Trustees of the University of Pennsylvania, priority 2015, published 2019)
